Results as given in patent publication US11179389B2, “Purine inhibitors of human phosphatidylinositol 3-kinase delta” (Merck Sharp & Dohme Corp., priority 2017, dated 2021).

Key:
[1] = target: PI3Kdelta (Homo sapiens (Human), UniProt O00329); experiment: HTRF PI3K biochemical assay, delta isoform; settings: 0.3 nM enzyme, 100 uM ATP, 5 uM PIP2, form screened per table (Neutral or TFA salt)
Text: (§1) HTRF PI3K Biochemical Assay to Measure Intrinsic Potency of Compound Inhibitors
(§2) The PI3-Kinase biochemical assays were developed to measure the intrinsic potency and compound dependent inhibition of the alpha, beta, delta, and gamma PI3K isoform enzymes. This assay was developed and further optimized from a kit produced by Upstate (Millipore catalog #33-047) (Millipore Sigma. Billerica Mass., USA) and has been configured for high throughput screening (HTS) and structure-activity relationship (SAR) screening. Briefly, this procedure exploits the exquisite specificity and high affinity binding of enzyme reaction […] phosphatidyl(3,4,5)triphosphate (PIP3) to the GRP1 pleckstrin homology (PH) domain to generate the signal. In the absence of PIP3, an HTRF (Homogeneous Time-Resolved Fluorescence energy transfer) complex is formed consisting of europium (Eu)-labeled anti-GST, GSTtagged GRP1-PH domain, biotin-PIP3 (biotinylated-PIP3) and streptavidin conjugated APC (Allophycocyanin). The native PIP3 produced by PI3-Kinase activity disrupts in a competitive manner the biotin-PIP3 from the pleckstrin homology (PH) domain, resulting in the loss of energy transfer (HTRF complex) and a decrease in the signal. The format of this assay is the same for all 4 isoforms of PI3K; the differences lie in the concentration of enzyme used to achieve robust assay window. The alpha, beta, and delta assays are run at 0.5, 1, and 0.3 nM enzymes and the gamma assay is run at 5 nM enzyme. The ATP concentration is 100 uM in the alpha, beta, and delta assays and 50 uM adenosine triphosphate (ATP) in the gamma assay. All reactions are run at 5 uM PIP2.
(§3) Compounds are serially diluted (3-fold in 100% DMSO) across a 384-well polypropylene source plated from column 3 to column 12 and column 13 to column 22, to yield 10 concentration dose response for each test compound. Columns 1, 2, 23 and 24 contain either only DMSO or pharmacological known control inhibitor. Once titrations are made, 2.5 nL of the compounds on 384 well plates are reformatted and transferred by acoustic dispense in quadruplicates to a 1536 assay plate (Greiner) to assay across all four PI3K isoform enzymes.
(§4) The PI3-Kinase biochemical assay was optimized using the HTRF kit provided by Upstate (Millipore). The assay kit contains six reagents: 1) 4×Reaction Buffer; 2) native PIP2 (substrate); 3) Stop (EDTA); 4) Detection Mix A (Streptavidin-APC); 5) Detection Mix B (Eu-labeled Anti-GST plus GST-tagged PH-domain): 6) Detection Mix C. In addition, the following items were obtained or purchased; PI3Kinase (catalog #'s alpha 14-602, beta 14-603, gamma 14-558 and delta 14-604 from Upstate Biotechnology now EMD Millipore, Mahopac, N.Y., USA), dithiothreitol (Sigma-Aldrich Corp. (St. Louis, Mo., USA) Catalog #D-5545), Adenosine-5′ triphosphate (InVitrogen (Waltham, Mass., USA), Cat#AS001 Å), native PIP3 (PI(3,4,5)P3, diC8, H^+, CELLSIGNALS, INC., (Columbus, Ohio, USA) Cat #907) DMSO ((Sigma-Aldrich Corp. (St. Louis. Mo., USA) Catalog #472301).
(§5) PI3Kinase Reaction Buffer is prepared by dilution the stock 1:4 with de-ionized water. DTT (DL-Dithiothreitol), phosphatidylinositol 4,5-bisphosphate (PIP2) and Biotin-PIP3 were added to 1536 assay plate at a final concentration of 5 mM, […] and 25 nM on the day of use. Enzyme addition and compound pre-incubation are initiated by the addition of 1.25 ul of PI3K (at twice its final concentration) in the 1× reaction buffer to all wells using a BioRaptor™. Plates are incubated at room temperature for 15 minutes. Reactions are initiated by addition of 1.25 ul of 2× substrate solution (PIP2 and ATP in 1× reaction buffer) using BioRaptor™. Plates are incubated in humidified chamber at room temperature for one hour. Reactions are quenched by addition of 0.625 uL of stop solution to all wells using the BioRaptor™. […]

[2] = target: PI3Kalpha (Homo sapiens (Human), UniProt P42336); experiment: HTRF PI3K biochemical assay, alpha isoform (for selectivity ratio); settings: ratio PI3K-alpha IC50 value / PI3K-delta IC50 value
Chain of PI3Kalpha (P42336 whole entry, canonical isoform): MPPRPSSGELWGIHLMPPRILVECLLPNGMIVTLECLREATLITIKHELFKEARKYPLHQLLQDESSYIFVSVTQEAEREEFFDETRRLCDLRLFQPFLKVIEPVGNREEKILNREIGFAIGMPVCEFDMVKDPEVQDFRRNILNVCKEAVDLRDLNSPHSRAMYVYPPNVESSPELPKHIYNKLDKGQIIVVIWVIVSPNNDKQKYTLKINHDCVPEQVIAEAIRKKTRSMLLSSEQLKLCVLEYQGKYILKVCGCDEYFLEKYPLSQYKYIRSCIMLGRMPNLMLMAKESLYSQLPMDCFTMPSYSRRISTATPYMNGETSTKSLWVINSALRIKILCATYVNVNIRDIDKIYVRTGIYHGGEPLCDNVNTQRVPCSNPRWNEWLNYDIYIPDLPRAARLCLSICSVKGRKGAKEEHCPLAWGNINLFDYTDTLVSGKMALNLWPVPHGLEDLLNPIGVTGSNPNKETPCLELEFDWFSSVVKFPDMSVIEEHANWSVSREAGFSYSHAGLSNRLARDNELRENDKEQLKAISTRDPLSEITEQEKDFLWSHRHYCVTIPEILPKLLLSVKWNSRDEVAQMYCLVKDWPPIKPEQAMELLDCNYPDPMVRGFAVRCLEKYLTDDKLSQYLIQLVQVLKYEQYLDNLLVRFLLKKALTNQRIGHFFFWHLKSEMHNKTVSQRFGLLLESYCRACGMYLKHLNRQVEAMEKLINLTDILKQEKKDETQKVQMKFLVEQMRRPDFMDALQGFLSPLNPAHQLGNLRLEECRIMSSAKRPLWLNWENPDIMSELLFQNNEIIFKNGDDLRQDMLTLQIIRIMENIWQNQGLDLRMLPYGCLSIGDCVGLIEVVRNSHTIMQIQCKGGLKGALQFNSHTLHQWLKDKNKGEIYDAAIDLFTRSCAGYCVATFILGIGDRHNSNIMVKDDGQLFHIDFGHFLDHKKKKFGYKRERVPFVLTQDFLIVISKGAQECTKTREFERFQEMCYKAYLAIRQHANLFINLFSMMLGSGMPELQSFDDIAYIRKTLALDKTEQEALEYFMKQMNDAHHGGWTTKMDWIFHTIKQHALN
Chain of PI3Kalpha (P27986 whole entry partner, canonical isoform): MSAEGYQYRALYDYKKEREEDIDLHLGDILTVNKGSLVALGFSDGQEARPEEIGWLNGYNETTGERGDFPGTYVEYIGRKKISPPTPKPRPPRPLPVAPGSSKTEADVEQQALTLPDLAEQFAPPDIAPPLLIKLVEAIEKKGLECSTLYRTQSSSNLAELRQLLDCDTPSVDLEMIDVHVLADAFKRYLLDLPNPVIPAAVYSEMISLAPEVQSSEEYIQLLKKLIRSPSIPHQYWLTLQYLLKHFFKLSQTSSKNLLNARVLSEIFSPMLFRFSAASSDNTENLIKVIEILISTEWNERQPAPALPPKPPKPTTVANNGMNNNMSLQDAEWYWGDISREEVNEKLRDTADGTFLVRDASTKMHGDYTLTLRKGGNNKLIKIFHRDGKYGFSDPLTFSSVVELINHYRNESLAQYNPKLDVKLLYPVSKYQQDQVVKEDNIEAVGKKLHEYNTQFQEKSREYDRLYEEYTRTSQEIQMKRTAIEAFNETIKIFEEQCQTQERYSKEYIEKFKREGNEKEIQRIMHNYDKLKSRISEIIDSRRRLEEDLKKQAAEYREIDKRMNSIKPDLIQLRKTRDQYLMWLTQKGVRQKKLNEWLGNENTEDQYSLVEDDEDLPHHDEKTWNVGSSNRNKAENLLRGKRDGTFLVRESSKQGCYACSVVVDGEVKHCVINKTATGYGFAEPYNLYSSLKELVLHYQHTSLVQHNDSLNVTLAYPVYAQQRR
Text: as §1, §2, §3, §4, §5

Chain of PI3Kdelta (O00329 whole entry, canonical isoform): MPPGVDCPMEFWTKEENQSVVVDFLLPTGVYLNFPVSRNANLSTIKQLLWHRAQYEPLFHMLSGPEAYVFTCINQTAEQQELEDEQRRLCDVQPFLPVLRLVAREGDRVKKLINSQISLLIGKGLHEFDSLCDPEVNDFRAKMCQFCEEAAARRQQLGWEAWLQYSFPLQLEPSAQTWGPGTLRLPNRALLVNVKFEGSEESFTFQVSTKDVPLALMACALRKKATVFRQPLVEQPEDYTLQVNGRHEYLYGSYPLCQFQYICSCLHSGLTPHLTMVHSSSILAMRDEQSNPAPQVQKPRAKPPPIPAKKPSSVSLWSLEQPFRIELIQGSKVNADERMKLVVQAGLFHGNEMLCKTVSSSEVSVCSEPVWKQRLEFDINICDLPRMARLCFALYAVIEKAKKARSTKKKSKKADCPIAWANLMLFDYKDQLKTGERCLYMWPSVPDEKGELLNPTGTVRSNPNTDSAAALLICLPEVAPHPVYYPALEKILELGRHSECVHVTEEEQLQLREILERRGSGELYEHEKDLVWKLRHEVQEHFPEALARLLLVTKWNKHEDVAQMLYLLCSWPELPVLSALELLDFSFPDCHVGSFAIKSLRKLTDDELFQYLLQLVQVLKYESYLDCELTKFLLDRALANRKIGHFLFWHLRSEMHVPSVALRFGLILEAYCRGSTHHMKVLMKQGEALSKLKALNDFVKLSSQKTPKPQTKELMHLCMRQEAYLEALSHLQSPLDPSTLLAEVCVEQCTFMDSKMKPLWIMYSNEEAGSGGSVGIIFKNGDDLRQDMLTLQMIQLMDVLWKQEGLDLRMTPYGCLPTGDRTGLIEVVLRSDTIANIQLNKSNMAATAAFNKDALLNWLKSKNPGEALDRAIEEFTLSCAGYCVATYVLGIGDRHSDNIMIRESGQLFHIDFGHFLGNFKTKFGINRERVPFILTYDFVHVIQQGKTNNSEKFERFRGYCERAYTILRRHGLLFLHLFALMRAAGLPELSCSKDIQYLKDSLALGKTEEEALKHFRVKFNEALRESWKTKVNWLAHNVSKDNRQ
Chain of PI3Kdelta (P27986 whole entry partner, canonical isoform): as the sequence (P27986 whole entry partner, canonical isoform) above

SMILES | IC50 [1] [nM] | Selectivity versus PI3Kalpha [2]
Cn1cc(-c2nc(N3CCC4(CC3)NC(=O)OC4CC3CC3)cnc2C#N)cn1 (single isomer, unassigned) [Compound 1-7, 5-[4-(cyclopropylmethyl)-2-oxo-3-oxa-1,8-diazaspiro[4.5]dec-8-yl]-3-(1-methyl-1H-pyrazol-4-yl)pyrazine-2-carbonitrile] | 55 | >10
CCC1C(=O)NCC12CCN(c1cnc(C#N)c(-c3cnn(C)c3)n1)CC2 (single isomer, unassigned) [Compound 1-8, 5-(4-ethyl-3-oxo-2,8-diazaspiro[4.5]dec-8-yl)-3-(1-methyl-1H-pyrazol-4-yl)pyrazine-2-carbonitrile] | 60 | >10
CC(C)CC1OC(=O)NCC12CCN(c1cnc(C#N)c(-c3cnn(C)c3)n1)CC2 (single isomer, unassigned) [Compound 1-10, 5-[1-(2-methylpropyl)-3-oxo-2-oxa-4,9-diazaspiro[5.5]undec-9-yl]-3-(1-methyl-1H-pyrazol-4-yl)pyrazine-2-carbonitrile] | 30 | >10
Cn1cc(-c2nc(N3CCC4(CCC(=O)N4CC4CC4)CC3)cnc2C#N)cn1 [Compound 1-1, 5-[1-(cyclopropylmethyl)-2-oxo-1,8-diazaspiro[4.5]dec-8-yl]-3-(1-methyl-1H-pyrazol-4-yl)pyrazine-2-carbonitrile] | 5.4 | >10
Cn1cc(-c2nc(N3CCC4(CC3)COC(=O)N4CC3(C)COC3)cnc2C#N)cn1 [Compound 1-2, 5-{1-[(3-methyloxetan-3-yl)methyl]-2-oxo-3-oxa-1,8-diazaspiro[4.5]dec-8-yl}-3-(1-methyl-1H-pyrazol-4-yl)pyrazine-2-carbonitrile] | 45 | >10
Cn1cc(-c2nc(N3CCC4(CC3)CNC(=O)N4CC3CC3)cnc2C#N)cn1 [Compound 1-3, 5-[1-(cyclopropylmethyl)-2-oxo-1,3,8-triazaspiro[4.5]dec-8-yl]-3-(1-methyl-1H-pyrazol-4-yl)pyrazine-2-carbonitrile] | 9.7 | >10
CN(C)CCN1CC2(CCN(c3cnc(C#N)c(-c4cnn(C)c4)n3)CC2)N(CC2CC2)C1=O [Compound 1-4, 5-{1-(cyclopropylmethyl)-3-[2-(dimethylamino)ethyl]-2-oxo-1,3,8-triazaspiro[4.5]dec-8-yl}-3-(1-methyl-1H-pyrazol-4-yl)pyrazine-2-carbonitrile] | 10 | >10
CC(N1C(=O)N(CCN(C)C)CC12CCN(c1cnc(C#N)c(-c3cnn(C)c3)n1)CC2)C(F)(F)F (stereo not shown) [Compound 1-5, 5-{3-[2-(dimethylamino)ethyl]-2-oxo-1-(2,2,2-trifluoro-1-methylethyl)-1,3,8-triazaspiro[4.5]dec-8-yl}-3-(1-methyl-1H-pyrazol-4-yl)pyrazine-2-carbonitrile] | 7.2 | >10
Cn1cc(-c2nc(N3CCC4(CC3)CNS(=O)(=O)N4CC3CC3)cnc2C#N)cn1 [Compound 1-6, 5-[1-(cyclopropylmethyl)-2,2-dioxido-2-thia-1,3,8-triazaspiro[4.5]dec-8-yl]-3-(1-methyl-1H-pyrazol-4-yl)pyrazine-2-carbonitrile] | 12 | >10
COCCN1CC2(CCN(c3cnc(C#N)c(-c4cnn(C)c4)n3)CC2)N(CC2CC2)C1=O [Compound 1-9, 5-[1-(cyclopropylmethyl)-3-(2-methoxyethyl)-2-oxo-1,3,8-triazaspiro[4.5]dec-8-yl]-3-(1-methyl-1H-pyrazol-4-yl)pyrazine-2-carbonitrile] | 18 | >10
Cn1cc(-c2nc(N3CCC4(CC3)CNC(=O)N4CC(F)(F)F)cnc2C#N)cn1 [Compound 1-11, 3-(1-methyl-1H-pyrazol-4-yl)-5-[2-oxo-1-(2,2,2-trifluoroethyl)-1,3,8-triazaspiro[4.5]dec-8-yl]pyrazine-2-carbonitrile] | 32 | >10
N#Cc1ncc(N2CCC3(CC2)COC(=O)N3CC2CC2)nc1-c1cnn(C(F)F)c1 [Compound 1-12, 5-[1-(cyclopropylmethyl)-2-oxo-3-oxa-1,8-diazaspiro[4.5]dec-8-yl]-3-[1-(difluoromethyl)-1H-pyrazol-4-yl]pyrazine-2-carbonitrile] | 54 | >10
C[C@@H]1CN(c2nc(-c3cnn(C)c3)cnc2C#N)CCN1C(=O)C1CC1 [Compound 1-13, 3-[(3R)-4-(cyclopropylcarbonyl)-3-methylpiperazin-1-yl]-5-(1-methyl-1H-pyrazol-4-yl)pyrazine-2-carbonitrile] | 190 | >10
C[C@@H]1C[C@H]1C(=O)N1CCN(c2cnc(C#N)c(-c3cnn(C)c3)n2)C[C@H]1C [Compound 1-14, 5-[(3R)-3-methyl-4-{[(1R,2R)-2-methylcyclopropyl]carbonyl}piperazin-1-yl]-3-(1-methyl-1H-pyrazol-4-yl)pyrazine-2-carbonitrile] | 8.9 | >10
C[C@@H]1CN(c2cnc(C#N)c(-c3cnn(C)c3)n2)CCN1C(=O)C1CC1 [Compound 1-15, 5-[(3R)-4-(cyclopropylcarbonyl)-3-methylpiperazin-1-yl]-3-(1-methyl-1H-pyrazol-4-yl)pyrazine-2-carbonitrile] | 33 | >10
C[C@@H]1CN(c2cnc(C#N)c(-c3cnn(C)c3)n2)CCN1C(=O)NC1CC1 [Compound 1-16, (2R)-4-[5-cyano-6-(1-methyl-1H-pyrazol-4-yl)pyrazin-2-yl]-N-cyclopropyl-2-methylpiperazine-1-carboxamide] | 280 | >10
C[C@@H]1C[C@H]1C(=O)N1CCN(c2cnc(C#N)c(-c3cnn(C(F)F)c3)n2)C[C@H]1C [Compound 1-17, 3-[1-(difluoromethyl)-1H-pyrazol-4-yl]-5-[(3R)-3-methyl-4-{[(1R,2R)-2-methylcyclopropyl]carbonyl}piperazin-1-yl]pyrazine-2-carbonitrile] | 73 | >10
[2H]C([2H])([2H])n1cc(-c2nc(N3CCN(C(=O)C4CC4)[C@H](C)C3)cnc2C#N)cn1 [Compound 1-18, 5-[(3R)-4-(cyclopropylcarbonyl)-3-methylpiperazin-1-yl]-3-[1-(~2~H_3_)methyl-1H-pyrazol-4-yl]pyrazine-2-carbonitrile] | 16 | >10
CC(C)C[C@@H]1CN(c2cnc(C#N)c(-c3cnn(C)c3)n2)CCN1C(=O)C1CC1 [Compound 1-19, 5-[(3R)-4-(cyclopropylcarbonyl)-3-(2-methylpropyl)piperazin-1-yl]-3-(1-methyl-1H-pyrazol-4-yl)pyrazine-2-carbonitrile] | 39 | >10
Cn1cc(-c2nc(N3CCC4(CCC(=O)N4CC4CC(F)(F)C4)CC3)cnc2C#N)cn1 [Compound 1-20, 5-{1-[(3,3-difluorocyclobutyl)methyl]-2-oxo-1,8-diazaspiro[4.5]dec-8-yl}-3-(1-methyl-1H-pyrazol-4-yl)pyrazine-2-carbonitrile] | 18 | >10
